According to US6171866A, “Luminescence indicator for determining calcium ions” (AVL Medical Instruments, priority 1998, dated 2001):
pKd: −log10 of the molar value.

Assay: Determination of the Kd values of ionophores from UV-absorption Ca^2+ titration curves
Assay type: binding
Conditions: aqueous solution, 30 mmol/l tris/HCl buffer, CO2-free, pH 7.4; absorption at 248 nm; 0.00001 to 0.5 mol/l Ca^2+; calculated from found pKd
Protocol: wherein, at a given ionic strength and temperature, the dissociation constant (Kd) is given by Equation 2, [formula]
The PKd value (Equation 3) is the negative common logarithm of the dissociation constant:
The absorption values in dependence on the Ca^2+ concentration were measured using a commercial photometer, at an absorption wavelength of 248 nm. The resulting titration curves were normalized to the value Amax =1 at a Ca^2+ concentration of 0.00001 mol/l using Equation 4 (see below).
The Kd values of the ionophores were determined from the measured absorption values of the Ca^2+ -titration curves according to Equation 3 (see above) and Equation 4 [formula]
wherein Ax is the normalized absorption value at the given Ca^2+ concentration, Amax is the absorption value at 0.00001 mol/l Ca^2+ and pKd has the meaning indicated in Equation 3.
They were determined from the found pKd values by means of Equation 3.

| Compound | pKd |
| --- | --- |
| COCCN(CCOC)c1ccccc1OCCN(CC(=O)O)CC(=O)O [Ionophore X9, Potassium N-[2-(N',N'-dimethoxyethyl)aminophenoxyethyl]imino-N,N-diacetate] | 2.21 |
| CCOCCN(CCN(CC(=O)O)CC(=O)O)c1ccccc1OC [Ionophore X3, Potassium N-[2-(N'-ethoxyethyl-N'-(2-methoxyphenyl)aminoethyl)]-imino-N,N-diacetate] | 2.98 |
| CCCCN(CCN(CC(=O)O)CC(=O)O)c1ccccc1OC [Ionophore X4, Potassium N-[2-(N'-butyl-N'-(2-methoxyphenyl)aminoethyl)]-imino-N,N-diacetate] | 2.04 |
| CCOc1ccccc1N(CCOCC(=O)O)CCOCC(=O)O [Ionophore X7, Potassium o-phenetidine-N,N-diethoxyacetate] | 2.96 |
| COc1ccccc1N(CCOc1ccccc1)CCN(CC(=O)O)CC(=O)O [Ionophore X5, Potassium N-[2-(N'-phenoxyethyl-N'-(2-methoxyphenyl)aminoethyl)]-imino-N,N-diacetate] | 2.16 |

Compounds with a higher pKd, results first:

| pKd | Compound |
| --- | --- |
| 3.70 | COc1ccccc1N(CCOCC(=O)O)CCOCC(=O)O [Ionophore X6, Potassium-o-anisidine-N,N-diethoxyacetate] |
| 3.48 | COCCN(CCN(CC(=O)O)CC(=O)O)c1ccccc1OC [Ionophore X2, Potassium N-[2-(N'-methoxyethyl-N'-(2-methoxyphenyl)aminoethyl)]-imino-N,N-diacetate] |
| 3.14 | COc1ccc(Cl)cc1N(CCOCC(=O)O)CCOCC(=O)O [Ionophore X8, Potassium 5-chloro-o-anisidine-N,N-diethoxyacetate] |
